The record followed here is BindingDB's records for doi:10.7270/Q22F7KMG (Eli Lilly, 1995).

SMILES strings stand for the structures.

In experiment [1] the target is T1, Dimer of Gag-Pol polyprotein [489-587] (Human immunodeficiency virus 1, UniProt P12497).
T1 construct: 489-587
Nature of the experiment: Protease Inhibition Assay. The following applies: pH 5.5; 22 °C. From the text: (§1) In the presence of HIV-l protease, the substrate is rapidly cleaved into two parts. The biotinylated amino terminal fragment binds to the avidin Pandex beads while the FITC-containing carboxy1 terminal fragment is removed through the membrane.

For experiment [2], the target named is T2, Gag-Pol polyprotein [489-587] (Human immunodeficiency virus 1, UniProt P04585).
T2 construct: 489-587
Briefly: Protease Inhibition Assay.
Text: as §1

As for `CC(C)(C)NC(=O)[C@@H]1C[C@@H]2CCCC[C@@H]2CN1C[C@@H](O)[C@H](Cc1ccccc1)NC(=O)[C@@H](C[S+]([O-])c1ccc2ccccc2c1)NS(C)(=O)=O` (stereo not given in full), the half-maximal inhibitory concentration (IC50) in experiment [1] and in experiment [2] was 0.4 nM throughout.
Take `CC(C)CN(C[C@@H](O)[C@H](Cc1ccccc1)NC(=O)[C@@H](CSc1ccc2ccccc2c1)NS(C)(=O)=O)C(=O)NC(C)(C)C` [(2S)-N-[(2S,3R)-4-[(tert-butylcarbamoyl)(2-methylpropyl)amino]-3-hydroxy-1-phenylbutan-2-yl]-2-methanesulfonamido-3-(naphthalen-2-ylsulfanyl)propanamide]: the concentration for half-maximal inhibition (IC50) in experiment [1] and in experiment [2] was 50 nM in each case.
On to `CC(C)CN(C[C@@H](O)[C@H](Cc1ccccc1)NC(=O)[C@@H](C[S+]([O-])c1ccc2ccccc2c1)NS(C)(=O)=O)C(=O)NC(C)(C)C` (stereo partly drawn) [(2S)-N-[(2S,3R)-4-[(tert-butylcarbamoyl)(2-methylpropyl)amino]-3-hydroxy-1-phenylbutan-2-yl]-2-methanesulfonamido-3-(naphthalene-2-sulfinyl)propanamide], for which the IC50 in experiment [1] and in experiment [2] was 2.1 nM in each case.
Turning to `CC(C)CN(C[C@@H](O)[C@H](Cc1ccccc1)NC(=O)[C@@H](CS(=O)(=O)c1ccc(F)cc1)NS(C)(=O)=O)C(=O)NC(C)(C)C` [(2S)-N-[(2S,3R)-4-[(tert-butylcarbamoyl)(2-methylpropyl)amino]-3-hydroxy-1-phenylbutan-2-yl]-3-[(4-fluorobenzene)sulfonyl]-2-methanesulfonamidopropanamide], the half-inhibitory concentration (IC50) in experiment [1] and in experiment [2] was 10 nM throughout.
As for `CC(C)CN(C[C@@H](O)[C@H](Cc1ccccc1)NC(=O)[C@@H](CSc1ccc(F)cc1)NS(C)(=O)=O)C(=O)NC(C)(C)C` [(2S)-N-[(2S,3R)-4-[(tert-butylcarbamoyl)(2-methylpropyl)amino]-3-hydroxy-1-phenylbutan-2-yl]-3-[(4-fluorophenyl)sulfanyl]-2-methanesulfonamidopropanamide], the half-maximal inhibitory concentration (IC50) in experiment [1] and in experiment [2] was 85 nM each time.
Regarding `CC(=O)N[C@H](CSCc1ccccc1)C(=O)N[C@@H](Cc1ccccc1)[C@H](O)CN1C[C@H]2CCCC[C@H]2C[C@H]1C(=O)NC(C)(C)C` [(3S,4aS,8aS)-2-[(2R,3S)-3-[(2S)-3-(benzylsulfanyl)-2-acetamidopropanamido]-2-hydroxy-4-phenylbutyl]-N-tert-butyl-decahydroisoquinoline-3-carboxamide], the IC50 in experiment [1] and in experiment [2] was 6 nM throughout.
`CC(C)(C)NC(=O)[C@@H]1C[C@@H]2CCCC[C@@H]2CN1C[C@@H](O)[C@H](Cc1ccccc1)NC(=O)[C@@H](CSc1ccc2ccccc2c1)NS(C)(=O)=O` [(3S,4aS,8aS)-N-tert-butyl-2-[(2R,3S)-2-hydroxy-3-[(2S)-2-methanesulfonamido-3-(naphthalen-2-ylsulfanyl)propanamido]-4-phenylbutyl]-decahydroisoquinoline-3-carboxamide]: the half-maximal inhibitory concentration (IC50) in experiment [1] and in experiment [2] was 5.1 nM throughout.
On to `CC(C)(C)NC(=O)[C@@H]1C[C@@H]2CCCC[C@@H]2CN1C[C@@H](O)[C@H](Cc1ccccc1)NC(=O)[C@@H](CS(=O)(=O)c1ccc2ccccc2c1)NS(C)(=O)=O` [(3S,4aS,8aS)-N-tert-butyl-2-[(2R,3S)-2-hydroxy-3-[(2S)-2-methanesulfonamido-3-(naphthalene-2-sulfonyl)propanamido]-4-phenylbutyl]-decahydroisoquinoline-3-carboxamide], for which the IC50 in experiment [1] and in experiment [2] was 0.5 nM each time.
With `CC(=O)N[C@H](CS(=O)(=O)c1ccc2ccccc2c1)C(=O)N[C@@H](Cc1ccccc1)[C@H](O)CN1C[C@H]2CCCC[C@H]2C[C@H]1C(=O)NC(C)(C)C` [(3S,4aS,8aS)-N-tert-butyl-2-[(2R,3S)-3-[(2S)-2-acetamido-3-(naphthalene-2-sulfonyl)propanamido]-2-hydroxy-4-phenylbutyl]-decahydroisoquinoline-3-carboxamide], the IC50 in experiment [1] and in experiment [2] was 1.6 nM throughout.
As for `CC(=O)N[C@H](CS(=O)(=O)c1cccc2cccnc12)C(=O)N[C@@H](Cc1ccccc1)[C@H](O)CN1C[C@H]2CCCC[C@H]2C[C@H]1C(=O)NC(C)(C)C` [(3S,4aS,8aS)-N-tert-butyl-2-[(2R,3S)-3-[(2S)-2-acetamido-3-(quinoline-8-sulfonyl)propanamido]-2-hydroxy-4-phenylbutyl]-decahydroisoquinoline-3-carboxamide], the 50% inhibitory concentration (IC50) in experiment [1] and in experiment [2] was 1.7 nM in each case.
Turning to `CC(C)(C)NC(=O)[C@@H]1C[C@@H]2CCCC[C@@H]2CN1C[C@@H](O)[C@H](Cc1ccccc1)NC(=O)[C@@H](C[S+]([O-])c1ccc(F)cc1)NS(C)(=O)=O` (stereo partly drawn) [(3S,4aS,8aS)-N-tert-butyl-2-[(2R,3S)-3-[(2S)-3-[(4-fluorobenzene)sulfinyl]-2-methanesulfonamidopropanamido]-2-hydroxy-4-phenylbutyl]-decahydroisoquinoline-3-carboxamide], the 50% inhibitory concentration (IC50) in experiment [1] and in experiment [2] was 0.6 nM in each case.
Take `CC(C)(C)NC(=O)[C@@H]1C[C@@H]2CCCC[C@@H]2CN1C[C@@H](O)[C@H](Cc1ccccc1)NC(=O)[C@@H](CSc1ccc(F)cc1)NS(C)(=O)=O` [(3S,4aS,8aS)-N-tert-butyl-2-[(2R,3S)-3-[(2S)-3-[(4-fluorophenyl)sulfanyl]-2-methanesulfonamidopropanamido]-2-hydroxy-4-phenylbutyl]-decahydroisoquinoline-3-carboxamide]: the 50% inhibitory concentration (IC50) in experiment [1] and in experiment [2] was 24 nM throughout.
Turning to `CC(C)(C)NC(=O)[C@@H]1C[C@@H]2SCC[C@@H]2CN1C[C@@H](O)[C@H](CSc1ccccc1)NC(=O)[C@@H](CS(=O)(=O)c1ccc2ccccc2c1)NC(=O)C(F)(F)F` [(3aR,6S,7aS)-N-tert-butyl-5-[(2R,3R)-2-hydroxy-3-[(2S)-3-(naphthalene-2-sulfonyl)-2-(2,2,2-trifluoroacetamido)propanamido]-4-(phenylsulfanyl)butyl]-octahydrothieno[3,2-c]pyridine-6-carboxamide], the IC50 in experiment [1] and in experiment [2] was 1.8 nM each time.
With `CC(=O)N[C@H](CS(=O)(=O)c1ccc(F)cc1)C(=O)N[C@@H](CSc1ccccc1)[C@H](O)CN1C[C@H]2CCS[C@H]2C[C@H]1C(=O)NC(C)(C)C` [(3aR,6S,7aS)-N-tert-butyl-5-[(2R,3R)-3-[(2S)-2-acetamido-3-[(4-fluorobenzene)sulfonyl]propanamido]-2-hydroxy-4-(phenylsulfanyl)butyl]-octahydrothieno[3,2-c]pyridine-6-carboxamide], the concentration for half-maximal inhibition (IC50) in experiment [1] and in experiment [2] was 1.8 nM each time.
`CC(C)(C)NC(=O)[C@@H]1C[C@@H]2SCC[C@@H]2CN1C[C@@H](O)[C@H](CSc1ccccc1)NC(=O)[C@@H](CS(=O)(=O)c1ccc(F)cc1)NC(=O)C(F)(F)F` [(3aR,6S,7aS)-N-tert-butyl-5-[(2R,3R)-3-[(2S)-3-[(4-fluorobenzene)sulfonyl]-2-(2,2,2-trifluoroacetamido)propanamido]-2-hydroxy-4-(phenylsulfanyl)butyl]-octahydrothieno[3,2-c]pyridine-6-carboxamide]: the IC50 in experiment [1] and in experiment [2] was 10 nM each time.

In general, IC50 refers to the point on the concentration scale where inhibition reaches its midpoint.
